Data: US10538555B2, “Macrocyclic inhibitors of the PD-1/PD-L1 and CD80(B7-1)/PD-L1 protein/protein interactions” (BRISTOL-MYERS SQUIBB COMPANY, priority 2014, dated 2020)
*1 amine or outer side, *2 acyl side, *3 side chain or, on linkers, in order; H or OH if unused. Where a SMILES comes first, the peptide text is derived from it. Bridges are numbered along the chain shown (N, C = ends). [ ]: non-standard residue; d: D form. ξ: configuration not given here. X10 = CC(C)C[C@H](CC(=O)[C@H](Cc1cnc[nH]1)N[*:1])C(=O)[*:2]; X5 = O=C(O)CC[C@H](N[*:1])C(=O)C1C[C@H](O)C[C@H]1C(=O)[*:2]; Trp(1-CH2COOH) = N[C@@H](Cc1cn(CC(=O)O)c2ccccc12)C(=O)O; Phe(3,4-(OMe)2) = COc1ccc(C[C@H](N)C(=O)O)cc1OC; Phe(2,4-Cl2) = N[C@@H](Cc1ccc(Cl)cc1Cl)C(=O)O; Phe(3,4-F2) = N[C@@H](Cc1ccc(F)c(F)c1)C(=O)O; X8 = O=C([C@H](CC1CNc2ccccc21)N[*:1])[*:2]; Phe(4-CN) = N#Cc1ccc(C[C@H](N)C(=O)O)cc1; Phe(4-Cl) = N[C@@H](Cc1ccc(Cl)cc1)C(=O)O; Phe(4-F) = N[C@@H](Cc1ccc(F)cc1)C(=O)O; Phe(4-Me) = Cc1ccc(C[C@H](N)C(=O)O)cc1; ξPro(4R-OH) = O=C(O)C1C[C@@H](O)CN1; Hyp = O=C(O)[C@@H]1C[C@@H](O)CN1; Aad = N[C@@H](CCCC(=O)O)C(=O)O; X9 = NN[C@H](N[*:1])C(=O)[*:2]; Thr(3ξ) = CC(O)[C@H](N)C(=O)O; NMeNle = CCCC[C@H](NC)C(=O)O; ξR = N=C(N)NCCCC(N)C(=O)O; NMeA = CN[C@@H](C)C(=O)O; Dab = NCC[C@H](N)C(=O)O; Dap = NC[C@H](N)C(=O)O

Molecular target: T1, Human PD-L1/PD-1 (Homo sapiens, UniProt Q9NZQ7)
T1 construct: TVMV protease cleavage site (C); made in house; host or cells: HEK293T cells
T1 sequence (Q9NZQ7 with tags, fused parts or gaps): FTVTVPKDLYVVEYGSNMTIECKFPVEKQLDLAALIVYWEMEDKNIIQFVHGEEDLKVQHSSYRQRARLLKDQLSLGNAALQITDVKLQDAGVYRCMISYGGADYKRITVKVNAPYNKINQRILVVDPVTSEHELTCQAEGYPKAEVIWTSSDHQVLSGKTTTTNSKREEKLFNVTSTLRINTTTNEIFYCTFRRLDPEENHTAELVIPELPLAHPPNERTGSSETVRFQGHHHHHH
Assay: HTRF Human PD-L1/PD-1 binding assay (PD-1-Ig/PD-L1-His)
Settings: PD-L1-His 10 nM, PD-1-Ig 20 nM; class symbol; read-out: HTRF Human PD-L1/PD-1 Binding Assay IC50 Range
Summary of the method: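 Step 1: compound with PD-L1-His (10 nM final), 15 min. Step 2: PD-1-Ig (20 nM final), 15 min. Step 3: Eu-cryptate anti-Ig (1 nM) plus APC anti-His (20 nM), 30 min equilibration. Signal taken as 665 nm/620 nm ratio.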

Row | Structure (SMILES) | IC50 [nM]
1 | CCCC[C@H]1C(=O)N(C)[C@@H](CCCC)C(=O)N[C@@H](CC(C)C)C(=O)N[C@H](C(=O)NCC(N)=O)CSCC(=O)N[C@@H](Cc2ccc(O)cc2)C(=O)N(C)[C@@H](C)C(=O)N[C@@H](CC(=O)O)C(=O)N2CCC[C@H]2C(=O)N[C@@H](Cc2cnc[nH]2)C(=O)N[C@@H](CCC(N)=O)C(=O)N2C[C@H](O)C[C@H]2C(=O)N[C@@H](Cc2c[nH]c3ccccc23)C(=O)N[C@@H](CCN)C(=O)N[C@@H](Cc2cn(CC(=O)O)c3ccccc23)C(=O)N1C [Example 6416] ({CH2CO}-Y[NMeA]DPHQ[Hyp]W[Dab][Trp(1-CH2COOH)][NMeNle][NMeNle]LCG-NH2; thioether N-14) | 10 to 99.9
2 | CCCC[C@H]1C(=O)N(C)[C@@H](CCCC)C(=O)NC(CCCNC(=N)N)C(=O)N[C@H](C(=O)NCC(N)=O)CCCC(=O)N[C@@H](Cc2ccc(O)cc2)C(=O)N(C)[C@@H](C)C(=O)N[C@@H](CC(N)=O)C(=O)N2CCC[C@H]2C(=O)N[C@@H](CN)C(=O)N[C@@H](CC(C)C)C(=O)N2C[C@H](O)CC2C(=O)N[C@@H](Cc2c[nH]c3ccccc23)C(=O)N[C@@H](CO)C(=O)N[C@@H](Cc2c[nH]c3ccccc23)C(=O)N1C (stereo partly drawn) [Example 7067] (Y[NMeA]NP[Dap]L[ξPro(4R-OH)]WSW[NMeNle][NMeNle][ξR][Aad]G-NH2; lactam N-14) | 10 to 99.9
3 | CCCC[C@H]1C(=O)N(C)[C@@H](CCCC)C(=O)N[C@@H](CCCNC(=N)N)C(=O)N[C@H](C(=O)NCC(N)=O)CSCC(=O)N[C@@H](Cc2ccc(F)c(F)c2)C(=O)N(C)[C@@H](C)C(=O)N[C@@H](CC(N)=O)C(=O)N2CCC[C@H]2C(=O)N[C@@H](CN)C(=O)N[C@@H](CC(C)C)C(=O)N2C[C@H](O)C[C@H]2C(=O)N[C@@H](Cc2c[nH]c3ccccc23)C(=O)N[C@@H](CO)C(=O)N[C@@H](Cc2c[nH]c3ccccc23)C(=O)N1C [Example 7068] ({CH2CO}-[Phe(3,4-F2)][NMeA]NP[Dap]L[Hyp]WSW[NMeNle][NMeNle]RCG-NH2; thioether N-14) | 10 to 99.9
4 | CCCC[C@H]1C(=O)N(C)[C@@H](CCCC)C(=O)N[C@@H](CCCNC(=N)N)C(=O)N[C@H](C(=O)NCC(N)=O)CSCC(=O)N[C@@H](Cc2ccc(Cl)cc2Cl)C(=O)N(C)[C@@H](C)C(=O)N[C@@H](CC(N)=O)C(=O)N2CCC[C@H]2C(=O)N[C@@H](CN)C(=O)N[C@@H](CC(C)C)C(=O)N2C[C@H](O)C[C@H]2C(=O)N[C@@H](Cc2c[nH]c3ccccc23)C(=O)N[C@@H](CO)C(=O)N[C@@H](CC2CNc3ccccc32)C(=O)N1C (stereo partly drawn) [Example 7069] ({CH2CO}-[Phe(2,4-Cl2)][NMeA]NP[Dap]L[Hyp]WS[X8][NMeNle][NMeNle]RCG-NH2; thioether N-14) | 1 to 9.9
5 | CCCC[C@H]1C(=O)N(C)[C@@H](CCCC)C(=O)N[C@@H](CCCNC(=N)N)C(=O)N[C@H](C(=O)NCC(N)=O)CSCC(=O)N[C@@H](Cc2ccc(C)cc2)C(=O)N(C)[C@@H](C)C(=O)N[C@@H](CC(N)=O)C(=O)N2CCC[C@H]2C(=O)N[C@@H](CN)C(=O)N[C@@H](CC(C)C)C(=O)N2C[C@H](O)C[C@H]2C(=O)N[C@@H](Cc2c[nH]c3ccccc23)C(=O)N[C@@H](CO)C(=O)N[C@@H](Cc2c[nH]c3ccccc23)C(=O)N1C [Example 7070] ({CH2CO}-[Phe(4-Me)][NMeA]NP[Dap]L[Hyp]WSW[NMeNle][NMeNle]RCG-NH2; thioether N-14) | 1 to 9.9
6 | CCCC[C@H]1C(=O)N(C)[C@@H](CCCC)C(=O)N[C@@H](CCCNC(=N)N)C(=O)N[C@H](C(=O)NCC(N)=O)CSCC(=O)N[C@@H](Cc2ccc(C)cc2)C(=O)N(C)[C@@H](C)C(=O)N[C@@H](CC(N)=O)C(=O)N2CCC[C@H]2C(=O)N[C@@H](Cc2cnc[nH]2)C(=O)C[C@@H](CC(C)C)C(=O)N2C[C@H](O)C[C@H]2C(=O)N[C@@H](Cc2c[nH]c3ccccc23)C(=O)N[C@@H](CO)C(=O)N[C@@H](Cc2c[nH]c3ccccc23)C(=O)N1C [Example 7071] ({CH2CO}-[Phe(4-Me)][NMeA]NP[X10][Hyp]WSW[NMeNle][NMeNle]RCG-NH2; thioether N-13) | 1 to 9.9
7 | CCCC[C@H]1C(=O)N(C)[C@@H](CCCC)C(=O)N[C@@H](CCCNC(=N)N)C(=O)N[C@H](C(=O)NCC(N)=O)CSCC(=O)N[C@@H](Cc2ccc(OC)c(OC)c2)C(=O)N(C)[C@@H](C)C(=O)N[C@@H](CC(N)=O)C(=O)N2CCC[C@H]2C(=O)N[C@@H](Cc2cnc[nH]2)C(=O)N[C@@H](CC(C)C)C(=O)N2C[C@H](O)C[C@H]2C(=O)N[C@@H](Cc2c[nH]c3ccccc23)C(=O)N[C@@H](CO)C(=O)N[C@@H](Cc2c[nH]c3ccccc23)C(=O)N1C [Example 7072] ({CH2CO}-[Phe(3,4-(OMe)2)][NMeA]NPHL[Hyp]WSW[NMeNle][NMeNle]RCG-NH2; thioether N-14) | 1 to 9.9
8 | CCCC[C@H]1C(=O)N(C)[C@@H](CCCC)C(=O)N[C@@H](CCCNC(=N)N)C(=O)N[C@H](C(=O)NCC(N)=O)CSCC(=O)N[C@@H](Cc2ccc(O)cc2)C(=O)N(C)[C@@H](C)C(=O)N[C@@H](CC(N)=O)C(=O)N2CCC[C@H]2C(=O)N[C@@H](NN)C(=O)N[C@@H](CC(C)C)C(=O)N2C[C@H](O)C[C@H]2C(=O)N[C@@H](Cc2c[nH]c3ccccc23)C(=O)N[C@@H]([C@@H](C)O)C(=O)N[C@@H](Cc2c[nH]c3ccccc23)C(=O)N1C [Example 7073] ({CH2CO}-Y[NMeA]NP[X9]L[Hyp]WTW[NMeNle][NMeNle]RCG-NH2; thioether N-14) | 1 to 9.9
9 | CCCC[C@H]1C(=O)N(C)[C@@H](CCCC)C(=O)N[C@@H](CCCNC(=N)N)C(=O)N[C@H](C(=O)NCC(N)=O)CSCC(=O)N[C@@H](Cc2ccc(O)cc2)C(=O)N(C)[C@@H](C)C(=O)N[C@@H](CC(N)=O)C(=O)N2CCC[C@H]2C(=O)N[C@@H](Cc2cnc[nH]2)C(=O)N[C@@H](CC(C)C)C(=O)N2C[C@H](O)C[C@H]2C(=O)N[C@@H](Cc2c[nH]c3ccccc23)C(=O)N[C@@H](C(C)O)C(=O)N[C@@H](Cc2c[nH]c3ccccc23)C(=O)N1C (stereo partly drawn) [Example 7075] ({CH2CO}-Y[NMeA]NPHL[Hyp]W[Thr(3ξ)]W[NMeNle][NMeNle]RCG-NH2; thioether N-14) | 1 to 9.9
10 | CCCC[C@H]1C(=O)N(C)[C@@H](CCCC)C(=O)N[C@@H](CCCNC(=N)N)C(=O)N[C@H](C(=O)NCC(N)=O)CSCC(=O)N[C@@H](Cc2ccc(C#N)cc2)C(=O)N(C)[C@@H](C)C(=O)N[C@@H](CC(N)=O)C(=O)N2CCC[C@H]2C(=O)N[C@@H](Cc2cnc[nH]2)C(=O)N[C@@H](CCC(=O)O)C(=O)C2C[C@H](O)C[C@H]2C(=O)N[C@@H](Cc2c[nH]c3ccccc23)C(=O)N[C@@H](CCN)C(=O)N[C@@H](Cc2c[nH]c3ccccc23)C(=O)N1C (stereo partly drawn) [Example 7077] ({CH2CO}-[Phe(4-CN)][NMeA]NPH[X5]W[Dab]W[NMeNle][NMeNle]RCG-NH2; thioether N-13) | 1 to 9.9
11 | CCCC[C@H]1C(=O)N(C)[C@@H](CCCC)C(=O)N[C@@H](CCCNC(=N)N)C(=O)N[C@H](C(=O)NCC(N)=O)CSCC(=O)N[C@@H](Cc2ccc(C#N)cc2)C(=O)N(C)[C@@H](C)C(=O)N[C@@H](CC(N)=O)C(=O)N2CCC[C@H]2C(=O)N[C@@H](Cc2cnc[nH]2)C(=O)N[C@@H](CCC(=O)O)C(=O)N2C[C@H](O)C[C@H]2C(=O)N[C@@H](Cc2c[nH]c3ccccc23)C(=O)N[C@@H](CO)C(=O)N[C@@H](Cc2c[nH]c3ccccc23)C(=O)N1C [Example 7078] ({CH2CO}-[Phe(4-CN)][NMeA]NPHE[Hyp]WSW[NMeNle][NMeNle]RCG-NH2; thioether N-14) | 10 to 99.9
12 | CCCC[C@H]1C(=O)N(C)[C@@H](CCCC)C(=O)N[C@@H](CCCNC(=N)N)C(=O)N[C@H](C(=O)NCC(N)=O)CSCC(=O)N[C@@H](Cc2ccc(Cl)cc2)C(=O)N(C)[C@@H](C)C(=O)N[C@@H](CC(N)=O)C(=O)N2CCC[C@H]2C(=O)N[C@@H](Cc2cnc[nH]2)C(=O)N[C@@H](CCC(=O)O)C(=O)C2C[C@H](O)C[C@H]2C(=O)N[C@@H](Cc2c[nH]c3ccccc23)C(=O)N[C@@H](CCN)C(=O)N[C@@H](Cc2c[nH]c3ccccc23)C(=O)N1C (stereo partly drawn) [Example 7079] ({CH2CO}-[Phe(4-Cl)][NMeA]NPH[X5]W[Dab]W[NMeNle][NMeNle]RCG-NH2; thioether N-13) | 1 to 9.9
13 | CCCC[C@H]1C(=O)N(C)[C@@H](CCCC)C(=O)N[C@@H](CCCNC(=N)N)C(=O)N[C@H](C(=O)NCC(N)=O)CSCC(=O)N[C@@H](Cc2ccc(Cl)cc2)C(=O)N(C)[C@@H](C)C(=O)N[C@@H](CC(N)=O)C(=O)N2CCC[C@H]2C(=O)N[C@@H](Cc2cnc[nH]2)C(=O)N[C@@H](CCC(=O)O)C(=O)N2C[C@H](O)C[C@H]2C(=O)N[C@@H](Cc2c[nH]c3ccccc23)C(=O)N[C@@H](CO)C(=O)N[C@@H](Cc2c[nH]c3ccccc23)C(=O)N1C [Example 7080] ({CH2CO}-[Phe(4-Cl)][NMeA]NPHE[Hyp]WSW[NMeNle][NMeNle]RCG-NH2; thioether N-14) | 10 to 99.9
14 | CCCC[C@H]1C(=O)N(C)[C@@H](CCCC)C(=O)N[C@@H](CCCNC(=N)N)C(=O)N[C@H](C(=O)NCC(N)=O)CSCC(=O)N[C@@H](Cc2ccc(F)cc2)C(=O)N(C)[C@@H](C)C(=O)N[C@@H](CC(N)=O)C(=O)N2CCC[C@H]2C(=O)N[C@@H](Cc2cnc[nH]2)C(=O)N[C@@H](CCC(=O)O)C(=O)N2C[C@H](O)C[C@H]2C(=O)N[C@@H](Cc2c[nH]c3ccccc23)C(=O)N[C@@H](CCN)C(=O)N[C@@H](Cc2c[nH]c3ccccc23)C(=O)N1C [Example 7081] ({CH2CO}-[Phe(4-F)][NMeA]NPHE[Hyp]W[Dab]W[NMeNle][NMeNle]RCG-NH2; thioether N-14) | 1 to 9.9
15 | CCCC[C@H]1C(=O)N(C)[C@@H](CCCC)C(=O)N[C@@H](CCCNC(=N)N)C(=O)N[C@H](C(=O)NCC(N)=O)CSCC(=O)N[C@@H](Cc2ccc(F)cc2)C(=O)N(C)[C@@H](C)C(=O)N[C@@H](CC(N)=O)C(=O)N2CCC[C@H]2C(=O)N[C@@H](Cc2cnc[nH]2)C(=O)N[C@@H](CCC(=O)O)C(=O)N2C[C@H](O)C[C@H]2C(=O)N[C@@H](Cc2c[nH]c3ccccc23)C(=O)N[C@@H](CO)C(=O)N[C@@H](Cc2c[nH]c3ccccc23)C(=O)N1C [Example 7082] ({CH2CO}-[Phe(4-F)][NMeA]NPHE[Hyp]WSW[NMeNle][NMeNle]RCG-NH2; thioether N-14) | 1 to 9.9
